From ChEMBL document CHEMBL1949518, “Synthesis and biological evaluation of some new 2-pyrazolines bearing benzene sulfonamide moiety as potential anti-inflammatory and anti-cancer agents” (Eur J Med Chem, 2011)

Tests used:
Assay type in all cases: functional
[1] = test system: Rattus norvegicus; assay: Antiinflammatory activity in Wistar rat assessed as inhibition of carrageenan-induced paw edema at 20 mg/kg, po administered 30 mins before carrageenan challenge measured after 3 hrs
[2] = test system: Rattus norvegicus; assay: Antiinflammatory activity in Wistar rat assessed as inhibition of carrageenan-induced paw edema at 20 mg/kg, po administered 30 mins before carrageenan challenge measured after 5 hrs
[3] = test system: CCRF-CEM; assay: Antiproliferative activity against human CCRF-CEM cells assessed as cell growth at 10^-5 M after 48 hrs by SRB assay relative to control; conditions: read-out: Activity
[4] = test system: MOLT-4; assay: Antiproliferative activity against human MOLT4 cells assessed as cell growth at 10^-5 M after 48 hrs by SRB assay relative to control; conditions: MOLT-4, 48 h, read-out: Activity
[5] = test system: EKVX; assay: Antiproliferative activity against human EKVX cells assessed as cell growth at 10^-5 M after 48 hrs by SRB assay relative to control; conditions: read-out: Activity
[6] = test system: HOP-62; assay: Antiproliferative activity against human HOP62 cells assessed as cell growth at 10^-5 M after 48 hrs by SRB assay relative to control; conditions: HOP-62, 48 h, read-out: Activity
[7] = test system: HOP-92; assay: Antiproliferative activity against human HOP92 cells assessed as cell growth at 10^-5 M after 48 hrs by SRB assay relative to control; conditions: HOP-92, 48 h, read-out: Activity
[8] = test system: NCI-H322M; assay: Antiproliferative activity against human NCI-H322M cells assessed as cell growth at 10^-5 M after 48 hrs by SRB assay relative to control; conditions: read-out: Activity
[9] = test system: HCC 2998; assay: Antiproliferative activity against human HCC2998 cells assessed as cell growth at 10^-5 M after 48 hrs by SRB assay relative to control; conditions: HCC 2998, 48 h, read-out: Activity
[10] = test system: KM12; assay: Antiproliferative activity against human KM12 cells assessed as cell growth at 10^-5 M after 48 hrs by SRB assay relative to control; conditions: KM12, 48 h, read-out: Activity
[11] = test system: SF-268; assay: Antiproliferative activity against human SF268 cells assessed as cell growth at 10^-5 M after 48 hrs by SRB assay relative to control; conditions: SF-268, 48 h, read-out: Activity
[12] = test system: SF-295; assay: Antiproliferative activity against human SF295 cells assessed as cell growth at 10^-5 M after 48 hrs by SRB assay relative to control; conditions: SF-295, 48 h, read-out: Activity
[13] = test system: SF-539; assay: Antiproliferative activity against human SF539 cells assessed as cell growth at 10^-5 M after 48 hrs by SRB assay relative to control; conditions: SF-539, 48 h, read-out: Activity
[14] = test system: IGROV-1; assay: Antiproliferative activity against human IGROV1 cells assessed as cell growth at 10^-5 M after 48 hrs by SRB assay relative to control; conditions: IGROV-1, 48 h, read-out: Activity
[15] = test system: OVCAR-4; assay: Antiproliferative activity against human OVCAR4 cells assessed as cell growth at 10^-5 M after 48 hrs by SRB assay relative to control; conditions: OVCAR-4, 48 h, read-out: Activity
[16] = test system: OVCAR-5; assay: Antiproliferative activity against human OVCAR5 cells assessed as cell growth at 10^-5 M after 48 hrs by SRB assay relative to control; conditions: OVCAR-5, 48 h, read-out: Activity
[17] = test system: 786-0; assay: Antiproliferative activity against human 786-0 cells assessed as cell growth at 10^-5 M after 48 hrs by SRB assay relative to control; conditions: 786-0, 48 h, read-out: Activity
[18] = test system: TK-10; assay: Antiproliferative activity against human TK10 cells assessed as cell growth at 10^-5 M after 48 hrs by SRB assay relative to control; conditions: TK-10, 48 h, read-out: Activity
[19] = test system: PC-3; assay: Antiproliferative activity against human PC3 cells assessed as cell growth at 10^-5 M after 48 hrs by SRB assay relative to control; conditions: PC-3, 48 h, read-out: Activity
[20] = test system: MCF7; assay: Antiproliferative activity against human MCF7 cells assessed as cell growth at 10^-5 M after 48 hrs by SRB assay relative to control; conditions: MCF7, 48 h, read-out: Activity
[21] = test system: MDA-MB-231; assay: Antiproliferative activity against human MDA-MB-231 cells assessed as cell growth at 10^-5 M after 48 hrs by SRB assay relative to control; conditions: MDA-MB-231, 48 h, read-out: Activity
[22] = Antiproliferative activity against human Hs 578T cells assessed as cell growth at 10^-5 M after 48 hrs by SRB assay relative to control; conditions: read-out: Activity
[23] = test system: Malme-3M; assay: Antiproliferative activity against human MALME-3M cells assessed as cell growth at 10^-5 M after 48 hrs by SRB assay relative to control; conditions: read-out: Activity
[24] = test system: M14; assay: Antiproliferative activity against human M14 cells assessed as cell growth at 10^-5 M after 48 hrs by SRB assay relative to control; conditions: M14, 48 h, read-out: Activity
[25] = test system: SK-MEL-2; assay: Antiproliferative activity against human SK-MEL-2 cells assessed as cell growth at 10^-5 M after 48 hrs by SRB assay relative to control; conditions: SK-MEL-2, 48 h, read-out: Activity
[26] = test system: SK-MEL-5; assay: Antiproliferative activity against human SK-MEL-5 cells assessed as cell growth at 10^-5 M after 48 hrs by SRB assay relative to control; conditions: SK-MEL-5, 48 h, read-out: Activity
[27] = test system: UACC-62; assay: Antiproliferative activity against human UACC62 cells assessed as cell growth at 10^-5 M after 48 hrs by SRB assay relative to control; conditions: UACC-62, 48 h, read-out: Activity
[28] = test system: MOLT-4; assay: Anticancer activity against human MOLT4 cells after 48 hrs by SRB assay; conditions: MOLT-4, 48 h
[29] = test system: HOP-62; assay: Anticancer activity against human HOP62 cells after 48 hrs by SRB assay; conditions: HOP-62, 48 h
[30] = test system: SF-295; assay: Anticancer activity against human SF295 cells after 48 hrs by SRB assay; conditions: SF-295, 48 h
[31] = test system: SK-OV-3; assay: Anticancer activity against human SKOV3 cells after 48 hrs by SRB assay; conditions: SK-OV-3, 48 h; for CC50: read-out: LC50 (the source's name)
[32] = test system: 786-0; assay: Anticancer activity against human 786-0 cells after 48 hrs by SRB assay; conditions: 786-0, 48 h; for CC50: read-out: LC50 (the source's name)
[33] = test system: DU-145; assay: Anticancer activity against human DU145 cells after 48 hrs by SRB assay; conditions: DU-145, 48 h; for CC50: read-out: LC50 (the source's name)
[34] = test system: T47D; assay: Anticancer activity against human T47D cells after 48 hrs by SRB assay; conditions: for CC50: read-out: LC50 (the source's name)

## Cc1cc(O)c(C2=NN(c3ccc(S(N)(=O)=O)cc3)C(c3ccc(Cl)cc3)C2)c(C)c1Cl (centres undefined)
[1]
  inhibition in vivo at 20 mg/kg: 80%
[2]
  inhibition in vivo at 20 mg/kg: 81.8%
[3]
  growth at 10 µM: 28%
[4]
  growth at 10 µM: 27.3%
[5]
  growth at 10 µM: 51.1%
[6]
  growth at 10 µM: 107%
[7]
  growth at 10 µM: 45.5%
[8]
  growth at 10 µM: 97.6%
[9]
  growth at 10 µM: 94.1%
[10]
  growth at 10 µM: 62.4%
[11]
  growth at 10 µM: 72.1%
[12]
  growth at 10 µM: 6.34%
[13]
  growth at 10 µM: 91.6%
[14]
  growth at 10 µM: 34.1%
[15]
  growth at 10 µM: 58.8%
[16]
  growth at 10 µM: 96.8%
[17]
  growth at 10 µM: 95.6%
[18]
  growth at 10 µM: 113%
[19]
  growth at 10 µM: 13.6%
[20]
  growth at 10 µM: 37.2%
[21]
  growth at 10 µM: 103%
[22]
  growth at 10 µM: 82.5%
[23]
  growth at 10 µM: 157%
[24]
  growth at 10 µM: 89.3%
[25]
  growth at 10 µM: 92.5%
[26]
  growth at 10 µM: 79.6%
[27]
  growth at 10 µM: 64.8%
[28]
  GI50: 12.7 µM
  TGI: 43.2 µM
[29]
  GI50: 18.6 µM
  TGI: 34.8 µM
[30]
  GI50: 19.2 µM
  TGI: 44.4 µM
[31]
  GI50: 27.4 µM
  TGI: 90.8 µM
  CC50: 100 µM
[32]
  GI50: 16.8 µM
  TGI: 32.2 µM
  CC50: 62 µM
[33]
  GI50: 19.2 µM
  TGI: 38.4 µM
  CC50: 77 µM
[34]
  GI50: 5.72 µM
  TGI: 19.7 µM
  CC50: 51.4 µM

## Cc1cc(O)c(C2=NN(c3ccc(S(N)(=O)=O)cc3)C(c3ccc(N(C)C)cc3)C2)c(C)c1Cl (centres undefined)
[1]
  inhibition in vivo at 20 mg/kg: 33%
[2]
  inhibition in vivo at 20 mg/kg: 36.4%
[3]
  growth at 10 µM: 11.6%
[4]
  growth at 10 µM: 14.3%
[5]
  growth at 10 µM: 49.7%
[6]
  growth at 10 µM: 84.3%
[7]
  growth at 10 µM: 21.3%
[8]
  growth at 10 µM: 75.3%
[9]
  growth at 10 µM: 66.5%
[10]
  growth at 10 µM: 29.1%
[11]
  growth at 10 µM: 61.7%
[12]
  growth at 10 µM: 20.4%
[13]
  growth at 10 µM: 79%
[14]
  growth at 10 µM: 20.6%
[15]
  growth at 10 µM: 58.9%
[16]
  growth at 10 µM: 95.2%
[17]
  growth at 10 µM: 43.3%
[18]
  growth at 10 µM: 80%
[19]
  growth at 10 µM: 12.1%
[20]
  growth at 10 µM: 13%
[21]
  growth at 10 µM: 59%
[22]
  growth at 10 µM: 71.2%
[23]
  growth at 10 µM: 103%
[24]
  growth at 10 µM: 39.1%
[26]
  growth at 10 µM: 81.7%
[27]
  growth at 10 µM: 53%
[28]
  GI50: 1.94 µM
  LC50: 34.9 µM
  TGI: 7.26 µM
[29]
  GI50: 10.4 µM
  LC50: 52.1 µM
  TGI: 23.3 µM
[30]
  GI50: 16 µM
  LC50: 62.4 µM
  TGI: 31.6 µM
[31]
  GI50: 7.75 µM
  TGI: 20.6 µM
  CC50: 4.54 µM
[32]
  GI50: 4.97 µM
  TGI: 17.4 µM
  CC50: 43.4 µM
[33]
  GI50: 5.6 µM
  TGI: 17.6 µM
  CC50: 42.3 µM
[34]
  GI50: 2.93 µM
  TGI: 14.9 µM
  CC50: 49.8 µM

## COc1ccc(C2CC(c3c(O)cc(C)c(Cl)c3C)=NN2c2ccc(S(N)(=O)=O)cc2)cc1 (centres undefined)
[1]
  inhibition in vivo at 20 mg/kg: 46.7%
[2]
  inhibition in vivo at 20 mg/kg: 36.4%
[3]
  growth at 10 µM: 38.7%
[4]
  growth at 10 µM: 36.5%
[5]
  growth at 10 µM: 70.5%
[6]
  growth at 10 µM: 78.1%
[7]
  growth at 10 µM: 43.3%
[8]
  growth at 10 µM: 85.1%
[9]
  growth at 10 µM: 97.6%
[10]
  growth at 10 µM: 75%
[11]
  growth at 10 µM: 76.1%
[12]
  growth at 10 µM: 152%
[13]
  growth at 10 µM: 92.3%
[14]
  growth at 10 µM: 71.9%
[15]
  growth at 10 µM: 86.4%
[16]
  growth at 10 µM: 86.6%
[17]
  growth at 10 µM: 92.5%
[18]
  growth at 10 µM: 104%
[19]
  growth at 10 µM: 56.2%
[20]
  growth at 10 µM: 71.6%
[21]
  growth at 10 µM: 71%
[22]
  growth at 10 µM: 99%
[23]
  growth at 10 µM: 138%
[24]
  growth at 10 µM: 77.8%
[25]
  growth at 10 µM: 94.3%
[26]
  growth at 10 µM: 94.4%
[27]
  growth at 10 µM: 74%
